Results: patent publication US4272524A, “N-Acyl-muramyl peptide derivatives having anti-infectious infections properties” (priority 1976, dated 1981)

Test system: Klebsiella pneumoniae
Test: Response of mice to an intramuscular infection by 10^4 Klebsiella pneumoniae (Table 2)
Type: in vivo
[1] = i.v. hour + 1 after inoculation, 100 μg per animal
[2] = per os day-1, 2,000 μg per animal

Molecule | Survival (%) D + 3 (i.v. day-1, 100 μg per animal) [%] | Survival (%) D + 5 (i.v. day-1, 100 μg per animal) [%] | Survival (%) D + 8 (i.v. day-1, 100 μg per animal) [%] | Survival (%) D + 3 [1] [%] | Survival (%) D + 5 [1] [%] | Survival (%) D + 8 [1] [%] | Survival (%) D + 3 [2] [%] | Survival (%) D + 5 [2] [%] | Survival (%) D + 8 [2] [%] | Survival (%) D + 3 (s.c. day-1, 100 μg per animal) [%] | Survival (%) D + 5 (s.c. day-1, 100 μg per animal) [%] | Survival (%) D + 8 (s.c. day-1, 100 μg per animal) [%]
CC(=O)N[C@H]1C(O)O[C@H](CO)[C@@H](O)[C@@H]1O[C@H](C)C(=O)N[C@@H](C)C(=O)N[C@H](CCC(N)=O)C(=O)O (stereo partly drawn) [Ac--Mur--L-Ala--D-Glu--γ(NH2)] | 92 | 79 | 67 | – | – | – | – | – | – | – | – | –
Ac--Mur--L-Ala--D-Glu-- γ(L-Ala)--NH2 [Ac--Mur--L-Ala--D-Glu--(L-Ala)--NH2] | 100 | 94 | 63 | – | – | – | – | – | – | – | – | –
Ac--Mur--L-Ala--D-Glu-- γ(L-Lys)--NH2 [Ac--Mur--L-Ala--D-Glu--(L-Lys)--NH2] | 100 | 93 | 73 | 91 | 78 | 66 | 81 | 81 | 56 | 100 | 81 | 75
Ac--Mur--L-Ala--D-Glu-- γ(L-Lys--L-Ala)--NH2 [Ac--Mur--L-Ala--D-Glu--(L-Lys--L-Ala)] | 96 | 79 | 71 | – | – | – | – | – | – | – | – | –
